# Tested on: Enterococcus faecalis strain L 149
# Assay: Bactericidal activity, time-kill curves
# Format: cell-based
# Conditions: 8 mg/I, in 48 h; inoculum 1.4 x 10^7 CFU/ml
# Protocol: Time-kill curves were run in 10 ml of Todd-Hewitt broth in 100 ml Erlenmeyer flasks, incubated at 37°C without agitation. A logarithmically growing culture of Enterococcus faecalis strain L 149 was inoculated at 1.4 x 10^7 CFU/ml.
# The reference antibiotic (teicoplanin, 8 mg/I) killed 99% of the infecting bacteria in 48 h, while antibiotic GE 2270 factor A (0.13 mg/I) killed 99.8% of the bacteria within 2 h and 99.99% within 48 h at this dose or within 24 h at 4 mg/I.
substance,measurement,value
teicoplanin,killed bacteria,99%

# From patent publication EP0359062B1, “Antibiotic GE 2270” (priority 1988, dated 1990)
